Source: US11564912B2, “Methods for treating irritable bowel syndrome (IBS)” (Salix Pharmaceuticals, Inc., priority 2008, dated 2023)
Several values for one entry are separate records, joined by “and”; a condition that tells them apart may be missing. Equal entries are not always repeated.

How the values were obtained:
subjects with dIBS = experiment: Study of rifaximin BID in subjects with dIBS: adequate relief of IBS symptoms and bloating; assay type: in vivo, human; conditions: for Percentage of Subjects with Adequate Relief of Bloating Symptom / Percentage of Subjects with Adequate Relief of IBS Symptoms: RFX 550 mg BID 14 days, N = 191, ITT, at least two of the final three weeks of treatment phase (Weeks 1 to 4); for Adequate Relief of Bloating, Post Treatment: Failures / Adequate Relief of Bloating, Post Treatment: Success / Adequate Relief of Bloating, Post Treatment: Failure: RFX 550 2 w (N = 54); for Patients with adequate relief of bloating / Patients with adequate relief of global IBS symptoms: rifaximin 550 mg twice daily 14 days
Procedure: This example relates to a study of rifaximin in subjects with dIBS. […] There were two measures of efficacy assessed. Subjects were questioned on the relief of overall IBS symptoms and bloating. […] The analyses defined success as a “yes” response to questions regarding adequate relief.
All subpopulations in the study responded to therapy. Baseline severity was determined using 7-point Lickert scales during screening for Abdominal Pain/Discomfort and Bloating, and the number, type (normal, hard, loose) and urgency of bowel movements.
Duration of effect was assessed in a follow-up period. Subjects that responded in the 4 week treatment period were followed for an additional 3 months.
The effect of treatment on the percentage of subjects who reported adequate relief of IBS and bloating symptoms for at least two of the final three weeks during the treatment phase (Weeks 1 to 4) is shown in Tables 3-5 and FIGS. 4-6 below.
Two measures of efficacy were assessed independently. The first was the proportion of subjects who provided a ‘yes’ response to the weekly SGA question: “In the past 7 days, have you had adequate relief of your IBS symptoms? (yes/no)”. The second endpoint was the proportion of subjects who provide a ‘yes’ response to the weekly individual symptom question: “In the past 7 days, have you had adequate relief of your symptom of bloating? (yes/no)”. Durability was based on the proportion of subjects that had adequate relief over the entire treatment phase.
It is reported herein that the severity of baseline symptoms of abdominal pain and bloating influenced the response to rifaximin treatment. The co-primary endpoints in this analysis assessed weekly yes/no responses to questions regarding adequate relief of global IBS symptoms and IBS-associated bloating. Severity of baseline IBS symptoms was evaluated as a potential confounder of clinical response and was categorized as mild/moderate or severe based on a mean score of ≤4 vs. >4 (on a 7-point scale) for bloating and abdominal pain.
The Weekly yes/no responses to questions regarding adequate relief of global IBS symptoms and IBS-associated bloating were assessed. Clinical response was defined as adequate relief for 2 of the final 3 treatment weeks (wk 2, 3, or 4). Severity of baseline IBS symptoms was evaluated as a potential confounder of clinical response and was categorized as mild/moderate or severe based on a mean score of ≤4 versus >4 (on a 7-point scale (0=not bothersome; 6=very bothersome)) for bloating and abdominal pain.

[1] = Rifaximin exposure in subjects having IBS; assay type: in vivo, human
[2] = test system: species of Staphylococcus, Streptococcus, Enterococcus, and Enterobacteriaceae; conditions: cited from earlier work
[3] = RFX 550 mg BID vs placebo, ITT, listed as RFX
[4] = RFX 550 mg BID, responders followed through week 16
[5] = patients with mild/moderate abdominal pain at baseline
[6] = patients with mild/moderate bloating at baseline

(2S,16Z,18E,20S,21S,22R, 23R,24R,25S,26S,27S,28E)-5,6,21,23,25 Pentahydroxy-27-methoxy -2,4,11,16,20,22,24,26-octamethyl-2,7-(epoxypentadeca-(1,11,13)trienimino)benzofuro (4,5-e) pyrido(1,2,-a) benzimidazole-1,15(2H)-dione,25-acetate [Rifaximin]
odds ratio, Adequate Relief of Bloating at the End of the Treatment Phase (subjects with dIBS; Male, RFX 550 2 w vs. PBO): Comparison of RFX 550 2 w vs. PBO p-value: 0.0802, odds ratio: 2.148 (0.912, 5.057) | odds ratio, Adequate Relief of IBS Symptoms at the End of the Treatment Phase (subjects with dIBS; Male, RFX 550 2 w vs. PBO): Comparison of RFX 550 2 w vs. PBO p-value: 0.0326, odds ratio: 2.511 (1.079, 5.842) | Adequate Relief of Bloating at the End of the Treatment Phase: Failure (subjects with dIBS; Male, RFX 550 4 w (N = 98)): 16 (72.7%) n (%) | Adequate Relief of Bloating at the End of the Treatment Phase: Success (subjects with dIBS; Male, RFX 550 4 w (N = 98)): 6 (27.3%) n (%) | Adequate Relief of IBS Symptoms at the End of the Treatment Phase: Failure (subjects with dIBS; Male, RFX 550 4 w (N = 98)): 15 (68.2%) n (%) | Adequate Relief of IBS Symptoms at the End of the Treatment Phase: Success (subjects with dIBS; Male, RFX 550 4 w (N = 98)): 7 (31.8%) n (%) | Percentage of Subjects with Adequate Relief of Bloating Symptom (subjects with dIBS): 46% | Percentage of Subjects with Adequate Relief of IBS Symptoms (subjects with dIBS): 52% | Percentage of Subjects with Adequate Relief of Bloating Symptom (subjects with dIBS; listed as RFX): 46.1% | Percentage of Subjects with Adequate Relief of IBS Symptoms (subjects with dIBS; listed as RFX): 52.4% | Odds Ratio Estimate, Number of Weeks with Adequate Relief of Bloating Symptoms (subjects with dIBS; RFX 550 mg BID vs placebo, ITT): 1.57 | Odds Ratio Estimate, Number of Weeks with Adequate Relief of IBS Symptoms (subjects with dIBS; RFX 550 mg BID vs placebo, ITT): 1.54 | Odds Ratio Estimate, Adequate Relief of Bloating Symptom (subjects with dIBS; [3]): 1.6 and 1.58 | Odds Ratio Estimate, Adequate Relief of IBS Symptoms (subjects with dIBS; [3]): 1.6 | Adequate relief of IBS symptoms during post-treatment follow-up (subjects with dIBS; [4]): 62.3% | Adequate relief of the symptom of bloating during post-treatment follow-up (subjects with dIBS; [4]): 59.3% | Adequate Relief of Bloating, Post Treatment: Failures (subjects with dIBS; Week 6): 5 (9.3%) n (%) | Adequate Relief of Bloating, Post Treatment: Success (subjects with dIBS; Week 6): 49 (90.7%) n (%) | odds ratio, Adequate Relief of Bloating, Post Treatment (subjects with dIBS; Week 6, RFX 550 2 w vs. PBO): Comparison of RFX 550 2 w vs. PBO p-value: 0.1303, odds ratio: 3.840 | Adequate Relief of Bloating, Post Treatment: Failures (subjects with dIBS; Week 7): 9 (16.7%) n (%) | Adequate Relief of Bloating, Post Treatment: Success (subjects with dIBS; Week 7): 45 (83.3%) n (%) | odds ratio, Adequate Relief of Bloating, Post Treatment (subjects with dIBS; Week 7, RFX 550 2 w vs. PBO): Comparison of RFX 550 2 w vs. PBO p-value: 0.1311, odds ratio: 2.931 | Adequate Relief of Bloating, Post Treatment: Failures (subjects with dIBS; Week 8): 7 (13.0%) n (%) | Adequate Relief of Bloating, Post Treatment: Success (subjects with dIBS; Week 8): 47 (87.0%) n (%) | odds ratio, Adequate Relief of Bloating, Post Treatment (subjects with dIBS; Week 8, RFX 550 2 w vs. PBO): Comparison of RFX 550 2 w vs. PBO p-value: 0.2858, odds ratio: 2.107 | Adequate Relief of Bloating, Post Treatment: Failures (subjects with dIBS; Week 9): 15 (27.8%) n (%) | Adequate Relief of Bloating, Post Treatment: Success (subjects with dIBS; Week 9): 39 (72.2%) n (%) | odds ratio, Adequate Relief of Bloating, Post Treatment (subjects with dIBS; Week 9, RFX 550 2 w vs. PBO): Comparison of RFX 550 2 w vs. PBO p-value: 0.0814, odds ratio: 2.737 | Adequate Relief of Bloating, Post Treatment: Failures (subjects with dIBS; Week 10): 15 (27.8%) n (%) | Adequate Relief of Bloating, Post Treatment: Success (subjects with dIBS; Week 10): 39 (72.2%) n (%) | odds ratio, Adequate Relief of Bloating, Post Treatment (subjects with dIBS; Week 10, RFX 550 2 w vs. PBO): Comparison of RFX 550 2 w vs. PBO p-value: 0.0217, odds ratio: 3.828 | Adequate Relief of Bloating, Post Treatment: Failures (subjects with dIBS; Week 11): 19 (35.2%) n (%) | Adequate Relief of Bloating, Post Treatment: Success (subjects with dIBS; Week 11): 35 (64.8%) n (%) | odds ratio, Adequate Relief of Bloating, Post Treatment (subjects with dIBS; Week 11, RFX 550 2 w vs. PBO): Comparison of RFX 550 2 w vs. PBO p-value: 0.0398, odds ratio: 3.115 | Adequate Relief of Bloating, Post Treatment: Failure (subjects with dIBS; Week 12): 18 (33.3%) n (%) | Adequate Relief of Bloating, Post Treatment: Success (subjects with dIBS; Week 12): 36 (66.7%) n (%) | odds ratio, Adequate Relief of Bloating, Post Treatment (subjects with dIBS; Week 12, RFX 550 2 w vs. PBO): Comparison of RFX 550 2 w vs. PBO p-value: 0.0596, odds ratio: 2.891 | Adequate Relief of Bloating, Post Treatment: Failure (subjects with dIBS; Week 13): 21 (38.9%) n (%) | Adequate Relief of Bloating, Post Treatment: Success (subjects with dIBS; Week 13): 33 (61.1%) n (%) | odds ratio, Adequate Relief of Bloating, Post Treatment (subjects with dIBS; Week 13, RFX 550 2 w vs. PBO): Comparison of RFX 550 2 w vs. PBO p-value: 0.0142, odds ratio: 4.187 | Adequate Relief of Bloating, Post Treatment: Failure (subjects with dIBS; Week 14): 20 (37.0%) n (%) | Adequate Relief of Bloating, Post Treatment: Success (subjects with dIBS; Week 14): 34 (63.0%) n (%) | odds ratio, Adequate Relief of Bloating, Post Treatment (subjects with dIBS; Week 14, RFX 550 2 w vs. PBO): Comparison of RFX 550 2 w vs. PBO p-value: 0.0121, odds ratio: 4.230 | Adequate Relief of Bloating, Post Treatment: Failure (subjects with dIBS; Week 15): 23 (42.6%) n (%) | Adequate Relief of Bloating, Post Treatment: Success (subjects with dIBS; Week 15): 31 (57.4%) n (%) | odds ratio, Adequate Relief of Bloating, Post Treatment (subjects with dIBS; Week 15, RFX 550 2 w vs. PBO): Comparison of RFX 550 2 w vs. PBO p-value: 0.0391, odds ratio: 3.323 | Adequate Relief of Bloating, Post Treatment: Failure (subjects with dIBS; Week 16): 22 (40.7%) n (%) | Adequate Relief of Bloating, Post Treatment: Success (subjects with dIBS; Week 16): 32 (59.3%) n (%) | odds ratio, Adequate Relief of Bloating, Post Treatment (subjects with dIBS; Week 16, RFX 550 2 w vs. PBO): Comparison of RFX 550 2 w vs. PBO p-value: 0.0212, odds ratio: 3.700 | Treatment effect (Bloating) (subjects with dIBS; dIBS Type: aIBS): 31.4%*, 31.4% | Treatment effect (IBS Sx) (subjects with dIBS; dIBS Type: aIBS): 31.4%*, 31.4% | Treatment effect (Bloating) (subjects with dIBS; dIBS Type: dIBS only): 4.5% | Treatment effect (IBS Sx) (subjects with dIBS; dIBS Type: dIBS only): 6.3% | Patients with adequate relief of bloating (subjects with dIBS; [5]): 44% | Patients with adequate relief of global IBS symptoms (subjects with dIBS; [5]): 50% | Patients with adequate relief of bloating (subjects with dIBS; [6]): 47% | Patients with adequate relief of global IBS symptoms (subjects with dIBS; [6]): 56% | Rifaximin exposure, fold lower than neomycin exposure [1]: more than 66 fold | Rifaximin exposure, fold lower than rifampin exposure [1]: more than 520 fold | In vitro antibacterial activity [2]: active
